This passage reports TGI results from PubChem BioAssay (NCI).

What all share (experiment): inhibition of tumour cell growth, NCI panel, 48 h
For assay [1], the system named is UO-31 renal.
Assay [2] relates to OVCAR-8 ovarian.
In assay [3] the test system is SK-OV-3 ovarian.
The test system of assay [4] is COLO 205 colon.
In assay [5] the test system is NCI-H226 lung.
The test system of assay [6] is 786-0 renal.
Assay [7] deals with SK-MEL-2 melanoma.
The test system of assay [8] is MCF7 breast.
Assay [9] concerns OVCAR-5 ovarian.
Assay [10] concerns SF-268 CNS.
The subject of assay [11] is NCI-H460 lung.
Assay [12] concerns NCI-H23 lung.
The test system of assay [13] is MDA-N.
The subject of assay [14] is HCT-116 colon.
The test system of assay [15] is HT29 colon.
For assay [16], the system named is BT-549 breast.
For assay [17], the system named is RPMI-8226 leukemia.
Assay [18] concerns RXF 393 renal.
For assay [19], the system named is CAKI-1 renal.

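Compound exposure: 48 hours, 5 concentrations, 96-well plates. TGI marks complete inhibition of growth.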

On to `Cc1cc(C)c(S(=O)(=O)N(CCCCCCN)OCCCN)c(C)c1`, for which the TGI in [1] turned out to be 43.2 µM; in assay [2] it was 27.9 µM; in assay [3], 34 µM; in assay [4], 32.3 µM; in assay [5], 86.5 µM; in assay [6] it was 32.1 µM. In addition, the TGI in assay [7] worked out at 36 µM; in assay [8] it was 37.3 µM; in [9] it was 40.1 µM; in assay [10], 36.3 µM; in assay [11], 31.6 µM; in [12] it was 32 µM. Besides, the TGI in [13] was 32.2 µM; in assay [14] it was 31.7 µM; in assay [15], 30 µM; in assay [16], 33.3 µM; in assay [17] it was greater than 100 µM.

On to `COc1cc(/C=C/C=C2\CCC/C(=C\C=C\c3ccc(O)c(OC)c3)C2=O)ccc1O`, for which the TGI in [1] is 39.5 µM; in [2] it was 72.3 µM; in [3], greater than 100 µM; in assay [4] it was 71.5 µM; in assay [18], 41.7 µM; in assay [6], 63.5 µM. Besides, the TGI in assay [7] is 87.5 µM; in [8] it was 36 µM; in assay [9], 79.5 µM; in assay [10] it was 40.4 µM; in assay [11] it was 57.7 µM; in [12] it was greater than 100 µM. Further, the TGI was greater than 100 µM in [13]; 49 µM in assay [14]; 31.1 µM in assay [15]; 34.2 µM in assay [19]; 60.5 µM in assay [16]; 28.5 µM in assay [17].

As for `Brc1cccc(Nc2ncnc3sc4c(c23)CCC(Nc2cccc(Br)c2)C4)c1` (centres undefined), the TGI in assay [1], in [2], in [3], in [4], in assay [18] and in assay [6] was greater than 100 µM throughout. Further, the TGI in assay [7], in assay [8], in [9], in assay [10], in [11] and in assay [12] was greater than 100 µM each time. The TGI in assay [13], in assay [14], in [15], in [19] and in assay [16] was greater than 100 µM in each case.

`CCOC(=O)CCC(NC(=O)c1ccc(Nc2cnc3cc(C(F)(F)F)ccc3n2)cc1)C(=O)OCC` (centres undefined): the TGI in assay [1] was greater than 100 µM; in assay [2] it was greater than 100 µM; in assay [4] it was greater than 100 µM; in assay [5] it was greater than 100 µM; in assay [18] it was 9.64 µM; in assay [6], greater than 66.8 µM. Besides, the TGI in assay [7] is greater than 100 µM; in assay [8], greater than 31.6 µM; in assay [9], greater than 100 µM; in [10], greater than 78.4 µM; in [11], greater than 100 µM; in assay [12] it was greater than 100 µM. In addition, the TGI in assay [13] was greater than 100 µM; in assay [14] it was greater than 100 µM; in [15], greater than 100 µM; in [19], 47 µM; in [16] it was 49 µM; in [17] it was greater than 100 µM.

With `Cc1ccc(C(=O)OC(C)C)cc1N=NN(C)C`, the TGI in [1], in assay [2], in assay [3], in assay [4], in assay [6] and in assay [7] was greater than 100 µM each time. For the same compound, the TGI in assay [8], in assay [9], in assay [10], in assay [11], in assay [12] and in assay [13] was greater than 100 µM throughout. Besides, the TGI in [14], in [15], in assay [19], in [16] and in assay [17] was greater than 100 µM each time.

In the case of `O=S(Nc1ccccc1)c1ccc(-c2ccccc2)cc1` (centres undefined), the TGI in assay [1], in [2], in [4], in assay [5], in [6] and in assay [8] was greater than 100 µM in each case. Also, the TGI in [9], in assay [10], in [11], in [12], in assay [13] and in assay [14] was greater than 100 µM throughout. Also, the TGI in [15], in [16] and in [17] was greater than 100 µM in each case.

On to `COc1cc(/C=C2\N=C(c3ccccc3)N(c3nc4cc(C)c(C)cc4s3)C2=O)cc(OC)c1OC`, for which the TGI in [1] is greater than 100 µM; in assay [2], 47.6 µM; in [3], greater than 100 µM; in assay [4], greater than 100 µM; in assay [18], 65.2 µM; in [6] it was greater than 100 µM. In addition, the TGI is greater than 100 µM in assay [7]; 43 µM in assay [8]; 84.2 µM in [9]; greater than 100 µM in assay [10]; greater than 100 µM in [11]; 38.9 µM in assay [13]. Also, the TGI in [14] was 50.4 µM; in assay [15], 48.6 µM; in [19] it was greater than 100 µM; in assay [16], greater than 100 µM; in assay [17] it was greater than 100 µM.
